One may read the IC50 as the concentration that gives 50% inhibition. By Kd is commonly meant the concentration at which binding is half-saturated.

The target in test [1] is T1, p38 (phosphorylation of ATF2 in presence of MK2) (Homo sapiens, UniProt Q16539).
T1 construct: made in house
As to the kind of experiment: ATF2/MK2 dual substrate assay, phospho-ATF2 readout (MSD). In kind it is biochemical.
Description: (§1) To this end, we designed a dual-substrate assay in which p38 could simultaneously phosphorylate MK2 and/or ATF2. The assay conditions chosen were 0.5 nM p38, 100 nM ATF2, 10 nM MK2, 50 uM ATP. As with the single substrate assay, MK2 phosphorylation was assayed at 30 min and ATF2 phosphorylation was assayed at 120 min to ensure that each measurement was within the linear range of the assay. ATP levels were measured at the end of the assay, to confirm that it was not being depleted.
(§2) The ability of active p38 to phosphorylate ATF2, MK2 or both was tested in a biochemical assay. Reagents were added in the following order: compound, substrate(s), ATP, p38 for a final reaction volume of 40 ul in low protein binding 96-well plates (Immulon-1B). […] Reactions were performed in buffer containing 20 mM HEPES pH 7.5, 10 mM MgCl2, 0.01% BSA, 0.0005% Tween-20, 2% DMSO and 0.1 mM DTT. Reactions were quenched with 40 ul of buffer containing 50 mM HEPES pH 7.5, 30 mM EDTA following different incubation times. Phosphorylated ATF2 and phosphorylated MK2 were assayed as described below. Compounds were diluted in DMSO (Sigma).
Phospho-ATF2 was measured with the Meso-Scale Discovery (MSD) platform using an in-house assay. […] Plates were incubated for > 3 hr at RT, washed 4× with 150 ul MSD Tris Wash Buffer and read on the Meso-Scale Discovery Sector imager using 2× MSD Read Buffer T.

Test [2] has as its target T2, p38 (phosphorylation of ATF2) (Homo sapiens, UniProt Q16539).
T2 construct: made in house
As to the kind of experiment: Single substrate assay, phospho-ATF2 readout (MSD). In kind it is biochemical.
Description: (§3) In each case, the degree of phosphorylation serves as a readout of the activity of p38 for its respective substrate.
as §2
Phospho-ATF2 was measured with the Meso-Scale Discovery (MSD) platform using an in-house assay. […] Plates were blocked with 3% MSD Blocker A in MSD Tris Wash Buffer for at least 1 hr at RT. […] Plates were incubated for > 3 hr at RT, washed 4× with 150 ul MSD Tris Wash Buffer and read on the Meso-Scale Discovery Sector imager using 2× MSD Read Buffer T.

Test [3] deals with T3, p38 (phosphorylation of MK2 in presence of ATF2) (Homo sapiens, UniProt Q16539).
T3 construct: made in house
Description: ATF2/MK2 dual substrate assay, phospho-MK2 readout (MSD). In kind it is biochemical. Conditions: 0.5 nM p38, 100 nM ATF2, 10 nM MK2, 50 uM ATP; measured at 30 min; ± standard error.
Description: as §1, §2
Phospho-MK2 was measured with the MSD platform using an in-house assay. […] Plates were incubated for > 3 hr at RT, washed 4× with 150 ul MSD Tris Wash Buffer and read on the Meso-Scale Discovery Sector imager using 2× MSD Read Buffer T.

Test [4] has as its target p38-alpha (MK2 phosphorylation). Details: method as in PMID 15362850. Conditions: read-out: KI, app, p38-alpha-dependent MK2 phosphorylation; cited from earlier work.
Test [5] has as its target p38-alpha (ATF-2 phosphorylation). Also on record: method as in PMID 15362850. The note with it: read-out: KI, app, phosphorylation of ATF-2; cited from earlier work.
The target of test [6] is T4, p38 (phosphorylation of MK2) (Homo sapiens, UniProt Q16539).
T4 construct: made in house
Description: Single substrate assay, phospho-MK2 readout (MSD). It counts as biochemical. Conditions: MK2 only; measured at 30 min; ± standard error.
Description: as §3, §2
Phospho-MK2 was measured with the MSD platform using an in-house assay. […] Plates were blocked with 3% MSD Blocker A in MSD Tris Wash Buffer for at least 1 hr at RT. […] Plates were incubated for > 3 hr at RT, washed 4× with 150 ul MSD Tris Wash Buffer and read on the Meso-Scale Discovery Sector imager using 2× MSD Read Buffer T.

The target of a further test is T5, p38 (Homo sapiens, UniProt Q16539).
T5 construct: made in house
As to the kind of experiment: ATP-p38 affinity (in-house measurement). It counts as binding. The note with it: kinetic model parameter. The text has this:
In order to aid in the interpretation of the dual substrate assay, we developed a simple kinetic model of p38-mediated phosphorylation of two substrates: ATF2 and MK2 (diagrammed in Figure 3a). Since p38 has a single kinase domain and ATP binding site, we assumed that p38 can only act on a single substrate at a time. For each substrate, a random-order bi-substrate (substrate + ATP) reaction mechanism was assumed. Active p38 can reversibly bind ATP, with affinity KD, ATP and ATP binding is independent of further complex formation. Active p38 (ATP bound and unbound) can reversibly bind to ATF2 or MK2 to form complexes p38-ATF2 or p38-MK2, respectively. Each complex undergoes an irreversible catalysis step to form products phospho-ATF2 (and ADP) or phospho-MK2 (and ADP). The model equations are a set of ordinary differential equations written in terms of mass-action kinetics. For the case where only one substrate is present, this model reduces to the single substrate assay.

In test [7] the target is p38-alpha (Homo sapiens) (UniProt Q16539). Conditions: cited from earlier work.
The target is the same in test [8]. Conditions: cited from earlier work. The source holds these as a separate data set.

Read-outs that look alike come from different tables or passages of the source. Some results are limits rather than exact numbers.

p38-alpha (Homo sapiens), sequence (Q16539 2-360): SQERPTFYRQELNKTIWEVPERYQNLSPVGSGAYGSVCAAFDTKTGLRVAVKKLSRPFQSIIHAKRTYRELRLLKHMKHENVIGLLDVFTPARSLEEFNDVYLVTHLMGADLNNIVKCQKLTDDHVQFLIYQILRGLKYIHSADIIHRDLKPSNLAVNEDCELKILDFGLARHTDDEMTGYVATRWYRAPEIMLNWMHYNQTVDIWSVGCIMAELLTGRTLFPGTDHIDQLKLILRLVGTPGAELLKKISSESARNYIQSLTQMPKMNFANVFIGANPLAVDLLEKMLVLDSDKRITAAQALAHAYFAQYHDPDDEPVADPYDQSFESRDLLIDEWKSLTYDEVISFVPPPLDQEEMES
T1 sequence (Q16539 whole entry): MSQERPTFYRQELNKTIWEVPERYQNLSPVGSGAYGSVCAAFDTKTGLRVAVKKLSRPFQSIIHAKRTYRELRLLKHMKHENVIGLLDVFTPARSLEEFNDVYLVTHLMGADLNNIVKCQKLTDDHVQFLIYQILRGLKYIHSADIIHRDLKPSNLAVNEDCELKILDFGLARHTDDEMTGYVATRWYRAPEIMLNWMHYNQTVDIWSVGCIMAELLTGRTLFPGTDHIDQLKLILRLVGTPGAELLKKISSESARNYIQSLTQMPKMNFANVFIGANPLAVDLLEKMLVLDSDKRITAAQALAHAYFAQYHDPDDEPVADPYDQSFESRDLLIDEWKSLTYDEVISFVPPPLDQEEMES
T2 sequence (Q16539 whole entry): as above
MK2, sequence (P49137 whole entry): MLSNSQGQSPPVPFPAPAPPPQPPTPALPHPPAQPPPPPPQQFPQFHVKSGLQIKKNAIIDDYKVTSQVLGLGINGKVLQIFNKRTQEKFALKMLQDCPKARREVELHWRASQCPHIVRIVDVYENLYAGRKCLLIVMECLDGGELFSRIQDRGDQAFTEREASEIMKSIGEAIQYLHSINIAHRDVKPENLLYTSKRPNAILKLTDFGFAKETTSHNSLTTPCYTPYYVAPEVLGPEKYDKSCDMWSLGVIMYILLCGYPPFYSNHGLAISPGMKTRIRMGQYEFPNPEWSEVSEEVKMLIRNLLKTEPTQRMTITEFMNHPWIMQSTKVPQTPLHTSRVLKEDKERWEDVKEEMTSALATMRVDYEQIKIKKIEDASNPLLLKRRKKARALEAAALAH
ATF2, sequence (P15336 whole entry): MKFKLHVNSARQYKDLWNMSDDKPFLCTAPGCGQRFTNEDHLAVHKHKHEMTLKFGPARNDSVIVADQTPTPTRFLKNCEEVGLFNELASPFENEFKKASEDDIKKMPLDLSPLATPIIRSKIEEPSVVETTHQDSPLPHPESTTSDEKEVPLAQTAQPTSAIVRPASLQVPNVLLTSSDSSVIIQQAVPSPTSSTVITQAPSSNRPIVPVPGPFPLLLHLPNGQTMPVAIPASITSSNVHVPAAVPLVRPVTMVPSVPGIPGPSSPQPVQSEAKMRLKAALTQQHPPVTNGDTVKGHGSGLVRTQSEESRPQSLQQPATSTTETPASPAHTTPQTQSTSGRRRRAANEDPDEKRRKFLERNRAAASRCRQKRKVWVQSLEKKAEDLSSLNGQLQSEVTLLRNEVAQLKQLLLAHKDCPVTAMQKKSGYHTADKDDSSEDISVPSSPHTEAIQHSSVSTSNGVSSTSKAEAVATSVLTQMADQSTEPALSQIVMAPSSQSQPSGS
T5 sequence (Q16539 whole entry): as the sequence (Q16539 whole entry) above
T3 sequence (Q16539 whole entry): as above
T4 sequence (Q16539 whole entry): as above

Take `O=C(CCCc1ccc(-c2ccccc2F)cc1)Nc1ccc(O)cc1` [CMPD1]: the IC50 was 27 ± 16 µM in test [1] (0.5 nM p38, 100 nM ATF2, 10 nM MK2, 50 uM ATP, measured at 120 min, ± standard error); above 400 µM in test [2] (ATF2 only, measured at 120 min, ± standard error); 41 ± 2.2 µM in test [3]; 23.4 ± 1.9 µM in test [6]. In addition, the “substrate selectivity = (ATF2 IC50)/(MK2 IC50), dual substrate assay” value in [1] (ratio of dual substrate assay IC50s) is recorded as 0.66. For the same compound, the “substrate selectivity = (ATF2 IC50)/(MK2 IC50), single substrate assay” value in [2] (ratio of single substrate assay IC50s) is on record as above 17. The results for the Ki in test [4] and in test [5] were 0.33 µM and above 20 µM, respectively.
Regarding `Nc1ncnc2c1ncn2[C@@H]1O[C@H](COP(=O)(O)OP(=O)(O)OP(=O)(O)O)[C@@H](O)[C@H]1O` [ATP], the Kd at p38 worked out at 67 µM.
Consider ATF2 (from UniProt P15336), for which, in the test with p38-alpha (Homo sapiens) [7], the Kd is 38 µM.
On to MK2 (from UniProt P49137), for which, in the test with p38-alpha (Homo sapiens) [8], the Kd is 0.02 µM.

The values above are taken from article PMC2850882, “Two additive mechanisms impair the differentiation of 'substrate-selective' p38 inhibitors from classical p38 inhibitors in vitro” (BMC Systems Biology, 2010).
